Measured values reported in ChEMBL document CHEMBL3430912, “GSK Tres Cantos Anti-Kinetoplastid Screening (TCAKS) Data”.

What was measured:
Trypanosoma cruzi [1] = assay: GSK_TCAKS: pIC50 Trypanosoma cruzi viability assay using beta-GAL activity. This assay was run at single shot at 5uM compound concentration per well. The biological reagents consisted of NIH-3T3 host cells and trypomastigotes parasitic cells; both cell types were set to a 3.3 * 10^5 cells/mL dilution in assay DMEM by means of a CASY cell counter device using a 60um capillary. 6 uL of the mixture were dispensed per well (about 1 * 10^3 host-cells and 1 * 10^3 parasites) with a Multidrop Combi dispenser. […] In all wells, the percentage of DMSO never exceeded 0.5%. Plates incubated for four days at 37C, 5% CO2. The substrate used for the assay fluorescence intensity (FLINT) readout was resorufin-beta-D-galactopiranoside (Sigma-Aldrich) at 5uM per well. It was diluted in PBS supplemented with the soft detergent Igepal (Fluka).; format: functional, organism-based, Mus musculus; details: Tulahuen, NIH3T3
[2] = test system: Trypanosoma brucei brucei; assay: GSK_TCAKS: pIC50 Trypanosoma brucei viability assay using fluorescence intensity. Assay plates (1536-well) were prepared by dispensing 25nL of compound solution per well using an Echo acoustic dispenser (Labcyte).; format: functional, organism-based; details: Lister 427, 2 h
Leishmania donovani [3] = assay: (§1) GSK_TCAKS: pIC50 Leishmania donovani Imaging: THP-1 Host Macrophages. Assay plates (384-well) were prepared by adding 250nL of compound to each well. For single shot assay, the final compound concentration was 5 uM. […] Automated image analysis was performed with a script developed on Acapella High Content Imaging and Analysis Software (PerkinElmer). Output: THP-1 cell count were reported for each well.; format: functional, organism-based, Homo sapiens
Leishmania donovani [4] = assay: as §1, with “Amastigotes/Macrophages.” for “THP-1 Host Macrophages.”, “Average number of amastigotes per macrophage” for “THP-1”, “cell” for “cell count”; format: functional, organism-based, Homo sapiens; details: THP-1
Trypanosoma cruzi [5] = assay: (§2) GSK_TCAKS: pIC50 H2C9 Imaging: H9c2 Host Cardiomyocytes. […] Cells were then washed once with PBS before infection. T. cruzi trypomastigotes, collected at days 5 to 8 after infection from LLC-MK2 parasite infected cultures, were allowed to swim out for 4h at 37C from a centrifuged pellet (2,500 rpm/10 min/room temperature). Trypomastigotes were then collected and counted in a CASY Cell Counter. Trypomastigotes, in supplemented DMEM, were added to H9c2 cultures in a multiplicity of infection of 1 and incubated for 18 h. Cells were washed once with PBS before incubation of the infected H9c2 monolayer with trypsin (Life-Technologies) to detach cells from the flask. Cells were counted in a CASY Cell Counter using a 150 um capillary and their density set at 5 * 10^4 cells per mL in supplemented assay DMEM. Infected H9c2 were dispensed into 384-well poly-lysine coated assay plates at 50uL per well using a Multidrop Combi dispenser. After seeding them, the plates were incubated at 37C, 5% CO2 for 72h. Cultures were then fixed and stained by addition of 50 uL of a solution containing 8% formaldehyde and 4 uM DRAQ5 DNA dye (BioStatus, UK) per well. […] Five images were collected per well for reliable statistical analysis. Automated image analysis was performed with a script developed on Acapella High Content Imaging and Analysis Software (PerkinElmer). Output: Number of H9c2 Host Cardiomyocytes nuclei to determine drug-related cytotoxicity.; format: functional, organism-based, Rattus norvegicus; details: H9c2, 4 h
[6] = test system: Trypanosoma brucei brucei; assay: GSK_TCAKS: pIC50 Trypanosoma brucei viability assay using luminiscence. Assay plates (1536-well) were prepared. T. brucei cultures were harvested and counted in a CASY cell counter. A parasite suspension was prepared at a final concentration of 5 * 10^4 cells/mL in complete HMI9 medium and 6uL was dispensed to all wells containing compounds using a Multidrop Combi dispenser. 6uL of HMI9 media with 0.4% DMSO were dispensed to control columns. Plates were incubated for 24 h at 37C, 5% CO2 then tempered for 10 min at room temperature. ATP content was quantified by adding 4 uL of CellTiter-Glo Reagent (Promega) according to the manufacturer's instructions. Luminescence was measured using a ViewLux.; format: functional, organism-based; details: Lister 427, CASY
Trypanosoma cruzi [7] = assay: as §2, with “Trypanosoma cruzi” for “H2C9”, “Amastigotes/Cell.” for “H9c2 Host Cardiomyocytes.”, “number” for “Number”, “amastigotes per cell as infection level measurement.” for “H9c2 Host Cardiomyocytes nuclei to determine drug-related cytotoxicity.”; format: functional, organism-based, Rattus norvegicus; details: H9c2, 4 h
Leishmania donovani [8] = assay: as §1, with “Infected” for “THP-1 Host”, “Percent of infected macrophage cells” for “THP-1 cell count”; format: functional, organism-based, Homo sapiens; details: THP-1
Trypanosoma cruzi [9] = assay: as §2, with “Trypanosoma cruzi” for “H2C9”, “Infected Cells.” for “H9c2 Host Cardiomyocytes.”, “percentage” for “Number”, “infected cells per well as a second infection marker.” for “H9c2 Host Cardiomyocytes nuclei to determine drug-related cytotoxicity.”; format: functional, organism-based, Rattus norvegicus; details: H9c2, 4 h
[10] = target: Sterol 14-alpha demethylase (Trypanosoma cruzi (strain CL Brener), UniProt Q7Z1V1); assay: GSK_TCAKS: pIC50 CYP51 from Trypanosoma cruzi.; format: functional
Leishmania donovani [11] = assay: GSK_TCAKS: pIC50 Leishmania donovani viability assay using fluorescence intensity. Assay plates (1536-well) were prepared by adding 30nL per well of compound. For single shot assay, the final compound concentration was 5uM. […] Briefly, eGFP LdBOB axenic amastigotes were harvested, fixed and counted in a CASY cell counter (Roche-Applied Science). A final concentration of 1.5 * 10^5 cells per well were prepared in amastigote media containing 500 U/mL penicillin/streptomycin (Invitrogen) and 6uL was dispensed to each experimental well using a Multidrop Combi dispenser (Thermo Scientific). 6uL of assay media was dispensed to control columns used as reference for 100% compound response. Following incubation for 72 h at 37C, 5% CO2, 2 uL of resazurin was added to each well at a final concentration of 0.5 mM in phosphate buffered saline (PBS) with IGEPAL (Sigma-Aldrich), 0.05% (v/v).; format: functional, organism-based
[12] = GSK_TCAKS: pIC50 HepG2 human cell line viability assay using luminiscence. […] Seeding density was checked to ensure that new mono-layers were not more than 50% confluent at the time of harvesting. Cell suspension was added to 500 mL of the same medium at a final density of 1.2 * 10^5 cells/mL. This cell suspension was dispensed (25 uL, 3000 cells per well) into 384-well clear-bottom plates using a Multidrop Combi dispenser. Prior to addition of the cell suspension, the screening compounds (250 nL) were pre-dispensed into the plates with an Echo liquid handler. Plates were incubated for 48 h at 37C, 5% CO2. After incubation, plates equilibrated at room temperature for 30 min before proceeding to develop the luminescent signal. The signal developer, CellTiter-Glo Reagent, was allowed to equilibrate at room temperature for 30 min and added to the plates (25uL per well) using a Multidrop Combi dispenser. Plates were left for 10 min at room temperature for stabilization and then read using a ViewLux.; format: toxicity, cell-based

Sterol 14-alpha demethylase, sequence (Q7Z1V1 whole entry): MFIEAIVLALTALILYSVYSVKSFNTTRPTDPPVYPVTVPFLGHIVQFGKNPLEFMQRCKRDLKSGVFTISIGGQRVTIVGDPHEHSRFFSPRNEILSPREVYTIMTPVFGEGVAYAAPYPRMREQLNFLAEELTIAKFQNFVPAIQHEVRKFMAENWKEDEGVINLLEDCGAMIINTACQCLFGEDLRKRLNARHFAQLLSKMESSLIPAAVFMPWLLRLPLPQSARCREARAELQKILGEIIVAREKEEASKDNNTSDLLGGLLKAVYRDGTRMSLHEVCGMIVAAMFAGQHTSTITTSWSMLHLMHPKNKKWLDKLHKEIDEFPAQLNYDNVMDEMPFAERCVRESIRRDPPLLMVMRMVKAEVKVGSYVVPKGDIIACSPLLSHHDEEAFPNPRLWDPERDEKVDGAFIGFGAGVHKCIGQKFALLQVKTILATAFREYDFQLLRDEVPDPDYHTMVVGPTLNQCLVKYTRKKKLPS

SMILES | IC50 (Trypanosoma cruzi [1]) | IC50 [2] | IC50 (Leishmania donovani [3]) | IC50 (Leishmania donovani [4]) | IC50 (Trypanosoma cruzi [5]) | IC50 [6] | IC50 (Trypanosoma cruzi [7]) | IC50 (Leishmania donovani [8]) | IC50 (Trypanosoma cruzi [9]) | IC50 [10] | IC50 (Leishmania donovani [11]) | IC50 at 48 h [12]
CC(C)COC(=O)Nc1ccc(N2CCC(CNS(=O)(=O)c3ccccc3)CC2)c(F)c1 | 10 µM | 2510 nM | > 50.1 µM | 1.26 µM | > 79400 nM | 20000 nM | 7.94 µM | 2000 nM | 7.94 µM | 2 µM | 3.98 µM | > 100 µM
CCC(CC)C(=O)Nc1ccc(-c2nnc(-c3ccc(OC)cc3)o2)cc1 | 5.01 µM | 501 nM | > 50.1 µM | > 50.1 µM | > 50100 nM | 501 nM | 3.98 µM | > 50100 nM | 12.6 µM | 12.6 µM | > 50.1 µM | > 100 µM
CCNc1cc(-c2ccccn2)nc(Nc2ccccc2)n1 | 0.794 µM | 25100 nM | 20 µM | 0.631 µM | 251 nM | 12600 nM | 3.16 µM | 794 nM | 3.16 µM | > 100 µM | 2.51 µM | 25.1 µM
C[C@@H](Oc1cc(-n2cnc3ccc(C(O)CO)cc32)sc1C(N)=O)c1ccccc1C(F)(F)F (stereo partly drawn) | 5.01 µM | 398 nM | 15.8 µM | 12.6 µM | 631 nM | 794 nM | 15.8 µM | 20000 nM | 20 µM | 25.1 µM | 15.8 µM | > 10 µM
CN(C)Cc1cccc(Nc2nccc(-c3ccc(NCCN)c(C#N)c3)n2)c1 | 1 µM | 50.1 nM | 6.31 µM | 0.501 µM | 2000 nM | 200 nM | 1.58 µM | 1260 nM | 10 µM | 6.31 µM | 2.51 µM | 25.1 µM
COc1ccc(NC(=O)c2ccc(NC(=O)CN(c3ccccc3C)S(C)(=O)=O)cc2)cc1 | 31.6 µM | 200 nM | > 50.1 µM | 7.94 µM | 25100 nM | 794 nM | 20 µM | > 50100 nM | 25.1 µM | 6.31 µM | > 50.1 µM | 39.8 µM
CC(C)(C)Nc1nc(-c2ccccn2)nc2ccccc12 | 1.26 µM | 6310 nM | 15.8 µM | 1.26 µM | 316 nM | 6310 nM | 1.26 µM | 1580 nM | 2 µM | > 100 µM | 6.31 µM | 20 µM
O=c1cc(NCCCNCc2cc(C(F)(F)F)cs2)[nH]c2ccccc12 | 7.94 µM | 316 nM | 20 µM | 25.1 µM | 31600 nM | 398 nM | 5.01 µM | 39800 nM | > 50.1 µM | 25.1 µM | > 50.1 µM | 63.1 µM
CCC(=O)Nc1ccccc1C(=O)Nc1ccccn1 | > 50.1 µM | 316 nM | > 50.1 µM | > 50.1 µM | > 50100 nM | 398 nM | > 50.1 µM | > 50100 nM | > 50.1 µM | > 100 µM | > 50.1 µM | > 100 µM
